Assay results as given in patent US20190119284A1, “ErbB Inhibitors and Uses Thereof” (The Regents of the University of California, priority 2016, published 2019).
Several values for one entry are separate records, joined by “and”; a condition that tells them apart may be missing. Identical values can stand only once. Like-named read-outs stand apart in the source and are kept apart here.

How the values were obtained:
[1] = Mouse Liver Microsome stability assay; type: in vitro ADME; conditions: mouse liver microsomes
[2] = Pharmacokinetic study, IV administration in male CD-1 mice; type: in vivo
[3] = Pharmacokinetic study, IP administration in male CD-1 mice; type: in vivo
[4] = IV 2.0 mg/kg, individual mice M1-M3, 2 mg/kg
[5] = IV 2.0 mg/kg, plasma, individual mice M1-M3, 2 mg/kg
[6] = male, CD-1, mouse, plasma, iv, 2 mg/kg, Mean
[7] = male, CD-1, mouse, plasma, iv, 2 mg/kg, individual mice M1-M3
[8] = IP 2.0 mg/kg, individual mice M1-M3
[9] = IP 2.0 mg/kg, individual mice M1-M3, 2 mg/kg
[10] = IP 2.0 mg/kg, plasma, individual mice M1-M3, 2 mg/kg
[11] = male, CD-1, mouse, plasma, ip, 2 mg/kg, Mean
[12] = male, CD-1, mouse, plasma, ip, 2 mg/kg, individual mice M1-M3

COc1ccc(-c2cccc(F)c2)cc1Nc1ncnc2[nH]nc(-c3cc[nH]n3)c12 [8168B]
WuXi Microsomal stability (Mouse Extraction Ratio) [1]: <0.3 | Plasma Concentration at 0.08 h [2, 4]: 53.28 ng/mL and 64.54 ng/mL | Plasma Concentration at 0.25 h [2, 4]: 29.14 ng/mL and 34.06 ng/mL | Plasma Concentration at 1.00 h [2, 4]: 22.71 ng/mL and 12.93 ng/mL | Plasma Concentration at 3.00 h [2, 4]: 11.36 ng/mL and 8.08 ng/mL | Plasma Concentration at 5.00 h [2, 4]: 7.57 ng/mL and 6.55 ng/mL | Plasma Concentration at 8.00 h [2, 4]: 7.32 ng/mL and 9.38 ng/mL | Plasma Concentration at 24.00 h [2, 4]: 5.33 ng/mL and 3.54 ng/mL | AUCExtra ([2]; IV 2.0 mg/kg, plasma, Mean): 46.09% | AUC0-inf [2, 5]: 3147.06 ng·h/mL and 487.06 ng·h/mL and 282.28 ng·h/mL | AUC0-last [2, 5]: 205.32 ng·h/mL and 185.37 ng·h/mL | AUCExtra [2, 5]: 94.18% and 57.85% and 34.33% | AUCall [2, 5]: 205.32 ng·h/mL and 185.37 ng·h/mL | C0 [2, 5]: 71.91 ng/mL and 88.67 ng/mL | Cl [2, 5]: 10.59 mL/min/kg and 68.44 mL/min/kg and 118.09 mL/min/kg | MRT0-last [2, 5]: 542 min | T½ [2, 5]: 302.57 h and 36.64 h and 18.98 h | Vd [2, 5]: 217.05 L/kg and 193.96 L/kg | AUC [2, 6]: 191 ng·h/mL | AUC(0-t) [2, 6]: 191 ng·h/mL | clearance [2, 6]: 93.3 mL/min/kg | concentration at 0.08 h [2, 6]: 58.9 ng/mL | concentration at 0.25 h [2, 6]: 31.6 ng/mL | concentration at 1 h [2, 6]: 17.8 ng/mL | concentration at 3 h [2, 6]: 9.72 ng/mL | concentration at 5 h [2, 6]: 7.06 ng/mL | concentration at 8 h [2, 6]: 8.35 ng/mL | concentration at 24 h [2, 6]: 4.44 ng/mL | AUC0-inf ([2]; male, CD-1, mouse, plasma, iv, 2 mg/kg, Mean, read-out: AUC0-inf): 385 ng·h/mL | C0 ([2]; male, CD-1, mouse, plasma, iv, 2 mg/kg, Mean, read-out: C0): 77.7 ng/mL | MRT last ([2]; male, CD-1, mouse, plasma, iv, 2 mg/kg, Mean, read-out: MRT0-last): 568 min | half-life ([2]; male, CD-1, mouse, plasma, iv, 2 mg/kg, Mean, read-out: T½ (converted)): 1670 min | Vd ([2]; male, CD-1, mouse, plasma, iv, 2 mg/kg, Mean, read-out: Vd): 206 L/kg | AUC [2, 7]: 183 ng·h/mL | AUC(0-t) [2, 7]: 183 ng·h/mL | concentration at 0.08 h [2, 7]: 55.1 ng/mL | concentration at 0.25 h [2, 7]: 31.9 ng/mL | concentration at 1 h [2, 7]: 12.3 ng/mL | concentration at 3 h [2, 7]: 6.96 ng/mL | concentration at 5 h [2, 7]: 7.32 ng/mL | concentration at 8 h [2, 7]: 6.02 ng/mL | concentration at 24 h [2, 7]: 6.79 ng/mL | C0 ([2]; male, CD-1, mouse, plasma, iv, 2 mg/kg, individual mice M1-M3, read-out: C0): 72.4 ng/mL | MRT last ([2]; male, CD-1, mouse, plasma, iv, 2 mg/kg, individual mice M1-M3, read-out: MRT0-last): 618 min | Vd ([2]; male, CD-1, mouse, plasma, iv, 2 mg/kg, individual mice M1-M3, read-out: Vd): 277 L/kg | Plasma Concentration at 5.00 h ([3]; IP 2.0 mg/kg, Mean): BLQ | Plasma Concentration at 8.00 h ([3]; IP 2.0 mg/kg, Mean): BLQ | Plasma Concentration at 24.00 h ([3]; IP 2.0 mg/kg, Mean): BLQ | Plasma Concentration at 5.00 h [3, 8]: BLQ | Plasma Concentration at 8.00 h [3, 8]: BLQ | Plasma Concentration at 24.00 h [3, 8]: BLQ | Plasma Concentration at 0.25 h [3, 9]: 189.54 ng/mL and 198.56 ng/mL | Plasma Concentration at 1.00 h [3, 9]: 69.73 ng/mL and 76.68 ng/mL | Plasma Concentration at 3.00 h [3, 9]: 4.17 ng/mL and 2.33 ng/mL | AUCExtra ([3]; IP 2.0 mg/kg, plasma, Mean): 1.11% | AUC0-inf [3, 10]: 163.10 ng·h/mL and 164.87 ng·h/mL | AUC0-last [3, 10]: 160.10 ng·h/mL and 163.46 ng·h/mL | AUCExtra [3, 10]: 0.63% and 1.84% and 0.86% | AUCall [3, 10]: 160.10 ng·h/mL and 163.46 ng·h/mL | Cmax [3, 10]: 189.54 ng/mL and 198.56 ng/mL | Half-life (T½) [3, 10]: 30 min and 25.2 min | MRT0-last [3, 10]: 48.6 min | AUC [3, 11]: 175 ng·h/mL | AUC(0-t) [3, 11]: 175 ng·h/mL | concentration at 0.25 h [3, 11]: 210 ng/mL | concentration at 1 h [3, 11]: 82.3 ng/mL | concentration at 3 h [3, 11]: 2.92 ng/mL | AUC0-inf ([3]; male, CD-1, mouse, plasma, ip, 2 mg/kg, Mean, read-out: AUC0-inf): 177 ng·h/mL | Cmax ([3]; male, CD-1, mouse, plasma, ip, 2 mg/kg, Mean, read-out: Cmax): 210 ng/mL | MRT last ([3]; male, CD-1, mouse, plasma, ip, 2 mg/kg, Mean, read-out: MRT0-last): 46.8 min | Half-life (T½) ([3]; male, CD-1, mouse, plasma, ip, 2 mg/kg, Mean, read-out: Oral T½ (converted)): 26.4 min | AUC [3, 12]: 203 ng·h/mL | AUC(0-t) [3, 12]: 203 ng·h/mL | concentration at 0.25 h [3, 12]: 242 ng/mL | concentration at 1 h [3, 12]: 101 ng/mL | concentration at 3 h [3, 12]: 2.25 ng/mL | AUC0-inf ([3]; male, CD-1, mouse, plasma, ip, 2 mg/kg, individual mice M1-M3, read-out: AUC0-inf): 204 ng·h/mL | Cmax ([3]; male, CD-1, mouse, plasma, ip, 2 mg/kg, individual mice M1-M3, read-out: Cmax): 242 ng/mL | MRT last ([3]; male, CD-1, mouse, plasma, ip, 2 mg/kg, individual mice M1-M3, read-out: MRT0-last): 45.6 min | Half-life (T½) ([3]; male, CD-1, mouse, plasma, ip, 2 mg/kg, individual mice M1-M3, read-out: Oral T½ (converted)): 24 min | Tmax ([3]; male, CD-1, mouse, IP 2.0 mg/kg, plasma, individual mice M1-M3): 15 min
